According to patent publication US4080467A, “Pharmaceutical compositions comprising 1,3-dithiolan-2-ylidene malonate derivatives” (Nihon Nohyaku Co., Ltd., priority 1976, dated 1978):

Key:
[1] = tested on: Acute Liver Damage associated with Centrilobular Necrosis (carbon tetrachloride); assay: Protective effect on acute liver damage associated with centrilobular necrosis (carbon tetrachloride model); type: in vivo, mice (four-week-old male, dd strain); conditions: 250 mg/kg oral 6 h before CCl4, average of 5 to 6 mice; for p-GPT (plasma glutamic-pyruvic transaminase activity): 24 h after CCl4, values over 1,000 regarded as 1,000; for Liver Damage Index: 0 normal, 2 slightly recognized, 4 clearly observable damage, 6 heavy damage
Description: Carbon tetrachloride (CCl4) administration induces centrilobular necrosis of the liver associated with loss of diphosphopyridine nucleotide, hepatic glycogen, coenzyme A and increase in neutral fat. Release of several enzymes from the hepatocytes, and increases of enzyme activities in the plasma are recognized as the result of the damage of the liver. A suitable means for evaluating the degree of damage induced by CCl4 or the degree of protection afforded by drugs is to study the plasma glutamic-pyruvic transaminase (p-GPT) activity.
Method: The test compounds were dissolved or suspended in olive oil and administered orally at the dose of 250 mg/kg to the mice (Four-week-old male mice-dd strain). After 6 hours, CCl4 was administered orally (0.05 ml/kg as olive oil solution). Animals were killed 24 hours after CCl4 administration, and the liver was grossly observed. The plasma was obtained by centrifugation. Activities of p-GPT were determined by the method of Reitman and Frankel and expressed in Karmen units.
Score for liver damage was as follows: […]
4 Clearly observable damage
Each figure indicates average of 5 to 6 mice. Values of p-GPT over 1,000 Karmen unit regarded as 1,000 for calculation of average for convenience.

[2] = tested on: fatty liver (carbon tetrachloride); assay: Therapeutic effect on fatty liver (carbon tetrachloride model); type: in vivo, male rat (35 week-old, SD strain); conditions: for Degree of fatty liver (histopathological examination): 10 days, one symbol per animal
Experimental: Carbon tetrachloride also induces fatty liver, but the picture of disease differs from the case of ethionine-induced fatty liver. Carbon tetrachloride is generally considered to damage microsome and thereby to inhibit protein synthesis and induce fatty liver.
Carbon tetrachloride was subscutaneously administered to 35 week-old male rat (SD strain) for 4 days at the dose of 1 ml/kg. The treated animals were left for 3 days after the last administration to maximize the manifestation of fatty liver.
Administration of the compounds of this invention was commenced on the fourth day after the administration of carbon tetrachloride was completed. It was orally given everyday for 10 days at the dose of 50 or 250 mg/kg. On the 11th day, the animals were sacrificed. The therapeutic effect was evaluated by determining the content of lipid in the liver (triglyceride and total lipid) and examining the histopathological changes. Triglyceride and total lipid were determined colorimetrically by chromotropic acid method and Bragdon's oxidation method, respectively.
Indices for the histopathological change is as follows.

[3] = tested on: bile flow and biliary salt; assay: Cholagogic action: bile flow and excretion of biliary salt; type: in vivo, male rat (4 week-aged, SD-JCL strain); conditions: 200 mg/kg oral; for bile flow / excretion of biliary salt: before treatment = 100
Experimental: The male rat (4 week-aged, SD-JCL strain) was anesthetized with sodium pentobarbital (37.5 mg/kg, intraperitoneal injection). The abdominal cavity was opened through a midline incision. The common bile duct was catheterized with polyethylene tube o.d. 0.8 mm. The catheter was brought to the outside through the abdominal incision wound prior to closing. Bile was collected from the catheter continuously with time intervals of one hour. The quantity of bile produced in one hour was determined by weighing and that of biliary salt was determined by enzymatic method (Ikagaku Jikkenho Koza 1B, Biological Constituents II, edited by Tamio YAMAKAWA). The amount of biliary salts was represented as cholic acid equivalent.
In the representation of the results, the quantities of bile and biliary salts produced in one hour prior to the administration of drug were taken as 100. The compound of this invention was orally administered at the dose of 200 mg/kg. As reference anethol trithion was used.

[4] = Effect on glucose metabolism (blood sugar after glucose load); type: in vivo, mice; conditions: for Blood Sugar: 250 mg/kg oral 6 h before glucose 4.0 g/kg
Experimental: The test compounds dissolved in olive oil and administered orally at the dose of 250 mg/kg to the mice. After 6 hours, 4.0 g/kg of glucose was orally administered. The same amount of glucose was given to the control animals. 0.02 ml of blood was taken from caudal vein of the mice at 30, 60, 90 and 120 min. after glucose administration. Blood sugar was measured by the procedure of Somogyi-Nelson. Number of animals used was 5 to 6 mice for each treatment.

[5] = 50 mg/kg oral everyday for 10 days
[6] = 250 mg/kg oral everyday for 10 days

Row | Structure (SMILES) | p-GPT (plasma glutamic-pyruvic transaminase activity) [1] [Karmen units] | Liver Damage Index [1] | other results
1 | CSC(=O)C(C(=O)SC)=C1SCCS1 [Compound 11] | 750 | 2.5 | 
2 | CCOC(=O)C(C(=O)OC)=C1SCCS1 [Compound 18] | 240 | 1.4 | 
3 | CCCCOCCOC(=O)C(C(=O)OCCOCCCC)=C1SCCS1 [Compound 17] | 242 | 3.0 | 
4 | COC(=O)C(C(=O)OC(C)C)=C1SCCS1 [Compound 19, Methyl isopropyl 1,3-dithiolan-2-ylidene malonate] | 89 | 1.0 | 
5 | CC(C)(C)OC(=O)C(C(=O)OC(C)(C)C)=C1SCCS1 [Compound 8] | 230 | 1.2 | 
6 | CCCCOC(=O)C(C(=O)OCCCC)=C1SCCS1 [Compound 5] | 322 | 3.0 | 
7 | CC(C)CCOC(=O)C(C(=O)OCCC(C)C)=C1SCCS1 [Compound 10] | 350 | 3.3 | 
8 | CCCCSC(=O)C(C(=O)OCC)=C1SCCS1 [Compound 28] | 31 | 0.8 | 
9 | CCCCSC(=O)C(C(=O)SCCCC)=C1SCCS1 [Compound 14] | 241 | 1.4 | 
10 | COC(=O)C(C(=O)OC)=C1SCC[S+]1[O-] (stereo not shown) [Compound 29] | 222 | 0.6 | 
11 | CC(C)COC(=O)C(C(=O)OC(C)C)=C1SCCS1 [Compound 23] | 102 | 1.0 | 
12 | CCC(C)OC(=O)C(C(=O)OC(C)CC)=C1SCCS1 (stereo not shown) [Compound 7] | 102 | 1.2 | 
13 | CCOC(=O)C(C(=O)SC(C)C)=C1SCCS1 [Compound 27] | 18 | 0.4 | 
14 | COC(=O)C(C(=O)OCC(C)C)=C1SCC[S+]1[O-] (stereo not shown) [Compound 34] | 102 | 1.0 | 
15 | CCOCCOC(=O)C(C(=O)OC(C)C)=C1SCC[S+]1[O-] (stereo not shown) [Compound 36] | 210 | 1.4 | 
16 | CC(C)COC(=O)C(C(=O)OCC(C)C)=C1SCCS1 [Compound 6] | 26 | 0.5 | Degree of fatty liver (histopathological examination) ([2]; 50 mg/kg oral): ± ± and ± ± + ±; Degree of fatty liver (histopathological examination) ([2]; 250 mg/kg oral): ± - - - ± ±
17 | CCOCCOC(=O)C(C(=O)OCC)=C1SCCS1 [Compound 25] | 85 | 1.0 | 
18 | COCCOC(=O)C(C(=O)OCCOC)=C1SCCS1 [Compound 15, di(methoxyethyl) 1,3-dithiolan-2-ylidene malonate] | 85 | 1.5 | 
19 | CCOC(=O)C(C(=O)OC(C)C)=C1SCC[S+]1[O-] (stereo not shown) [Compound 35] | 152 | 0.8 | 
20 | CC(C)COC(=O)C(C(=O)OCC(C)C)=C1SCC[S+]1[O-] (stereo not shown) [Compound 32] | 180 | 1.0 | Total lipid [2, 5]: 112.4 ± 12.3 mg/g-liver; Triglyceride [2, 5]: 48.3 ± 7.6 mg/g-liver; Total lipid [2, 6]: 77.2 ± 8.7 mg/g-liver; Triglyceride [2, 6]: 26.3 ± 4.2 mg/g-liver
21 | COC(=O)C(C(=O)OCC(C)C)=C1SCCS1 [Compound 20] | 62 | 0.2 | bile flow ([3]; 1 hour after treatment): 113±4.3; excretion of biliary salt ([3]; 1 hour after treatment): 104±11; bile flow ([3]; 2 hours after treatment): 112±8.2; excretion of biliary salt ([3]; 2 hours after treatment): 119±13; bile flow ([3]; 3 hours after treatment): 106±6.3; excretion of biliary salt ([3]; 3 hours after treatment): 120±17; bile flow ([3]; 4 hours after treatment): 113±8.8; excretion of biliary salt ([3]; 4 hours after treatment): 113±18; bile flow ([3]; 5 hours after treatment): 93±3.8; excretion of biliary salt ([3]; 5 hours after treatment): 82±7.3; Amount of total biliary salts excreted for 5 hours relative to control ([3]; versus control): 1.55 times; Quantity of total excreted bile for 5 hours relative to control ([3]; versus control): 1.14 times
22 | NC(=O)CCCCC1CCSS1 (stereo not shown) [Thioctic acid amide, thioctic acid amide, reference compound] | 763 | 4.8 | 
23 | CCOCCOC(=O)C(C(=O)OC(C)C)=C1SCCS1 [Compound 24] | 152 | 1.2 | Blood Sugar (percent of 0 min value) ([4]; 0 min): 100%; Blood Sugar ([4]; 0 min): 135 ± 13.2 mg/dL; Blood Sugar ([4]; 30 min): 248 ± 20.2 mg/dL; Blood Sugar ([4]; 60 min): 214 ± 18.8 mg/dL; Blood Sugar ([4]; 90 min): 173 ± 24.4 mg/dL; Blood Sugar ([4]; 120 min): 140 ± 16.3 mg/dL; Blood Sugar (percent of 0 min value) ([4]; 30 min): 184%; Blood Sugar (percent of 0 min value) ([4]; 60 min): 158%; Blood Sugar (percent of 0 min value) ([4]; 90 min): 128%; Blood Sugar (percent of 0 min value) ([4]; 120 min): 104%
24 | CC(C)SC(=O)C(C(=O)SC(C)C)=C1SCCS1 [Compound 13] | 105 | 1.4 | Degree of fatty liver (histopathological examination) ([2]; 50 mg/kg oral): ± ± and ± ± ± + ±; Degree of fatty liver (histopathological examination) ([2]; 250 mg/kg oral): - ± and - ± ± ±
25 | CCSC(=O)C(C(=O)SCC)=C1SCCS1 [Compound 12] | 36 | 1.0 | Blood Sugar (percent of 0 min value) ([4]; 0 min): 100%; Blood Sugar ([4]; 0 min): 141 ± 11.3 mg/dL; Blood Sugar ([4]; 30 min): 264 ± 21.5 mg/dL; Blood Sugar ([4]; 60 min): 225 ± 17.2 mg/dL; Blood Sugar ([4]; 90 min): 167 ± 15.6 mg/dL; Blood Sugar ([4]; 120 min): 142 ± 13.2 mg/dL; Blood Sugar (percent of 0 min value) ([4]; 30 min): 187%; Blood Sugar (percent of 0 min value) ([4]; 60 min): 160%; Blood Sugar (percent of 0 min value) ([4]; 90 min): 118%; Blood Sugar (percent of 0 min value) ([4]; 120 min): 100%
26 | COC(=O)C(C(=O)OC)=C1SCCS1 [Compound 1] | 200 | 2.2 | 
27 | CCCOC(=O)C(C(=O)OCCC)=C1SCCS1 [Compound 3, Di-n-propyl 1,3-dithiolan-2-ylidene malonate] | 26 | 1.0 | 
28 | CC(C)(C)OC(=O)C(C(=O)OC(C)(C)C)=C1SCC[S+]1[O-] (stereo not shown) [Compound 33] | 212 | 1.4 | 
29 | CCOCCOC(=O)C(C(=O)OCCOCC)=C1SCCS1 [Compound 16] | 150 | 1.0 | 
30 | CCCCCOC(=O)C(C(=O)OCCCCC)=C1SCCS1 [Compound 9] | 550 | 3.2 | 
